For 18 compounds, activation results are on record in patent US8748436B2, “Carboxylic acid derivatives having a 2,5,7-substituted oxazolopyrimidine ring” (Sanofi, priority 2010, dated 2014).

The structures appear in SMILES notation.

For this test, the target named is T1, human Edg-1 receptor (Homo sapiens, UniProt P21453).
T1 construct: FLAG (N); expressed in transfected cells; membrane preparation
T1 sequence (P21453 whole entry): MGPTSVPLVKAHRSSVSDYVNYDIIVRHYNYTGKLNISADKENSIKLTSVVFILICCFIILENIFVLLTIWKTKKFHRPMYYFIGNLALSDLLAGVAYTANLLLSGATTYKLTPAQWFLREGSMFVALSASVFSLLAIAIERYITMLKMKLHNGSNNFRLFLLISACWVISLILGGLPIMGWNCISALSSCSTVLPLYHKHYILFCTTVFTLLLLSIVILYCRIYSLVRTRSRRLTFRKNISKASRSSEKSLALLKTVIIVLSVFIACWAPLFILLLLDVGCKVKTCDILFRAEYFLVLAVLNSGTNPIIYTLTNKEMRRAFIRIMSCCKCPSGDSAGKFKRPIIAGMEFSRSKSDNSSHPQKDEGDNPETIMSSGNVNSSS
The experiment in a line: GTP-γ-S assay using human Edg-1 receptors (scintillation proximity assay, CHO Flp-In cell membrane preparation). In kind it is biochemical. The following applies: test compound at 10 μM; high control 10 μM S1P regarded as 100% activation; [35S]GTP-γ-S binding, triplicate; read-out: % Activation (Edg-1 receptor activation in percent of the activation by 10 μM S1P). A digest of the protocol:
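Scintillation proximity GTP-γ-S binding measured receptor activation. Membranes came from a stably transfected CHO Flp-In line constitutively overexpressing N-terminally FLAG-tagged human Edg-1. Membranes were prepared by hypotonic lysis (5 mM HEPES, 1 mM EDTA, protease inhibitors) at 4 °C and Dounce homogenisation.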
(SPA uses beads or plates that emit light when radiolabelled molecules are held near them.)
`CCCOc1nc(Oc2ccc(F)c(Cl)c2)nc2oc(-c3cc(C)c(OCC(=O)O)c(C)c3)nc12` [Example 62, {4-[5-(3-chloro-4-fluorophenoxy)-7-propoxy-oxazolo[5,4-d]pyrimidin-2-yl]-2,6-dimethylphenoxy}-acetic acid]: the activation at 10 µM was 56%. The value for `CCCOc1nc(Oc2cccc(Cl)c2F)nc2oc(-c3cc(C)c(OCC(=O)O)c(C)c3)nc12` [Example 63, {4-[5-(3-chloro-2-fluorophenoxy)-7-propoxy-oxazolo[5,4-d]pyrimidin-2-yl]-2,6-dimethyl-phenoxy}-acetic acid] was 67%; that for `CCCOc1nc(Oc2ccc(Cl)c(F)c2)nc2oc(-c3cc(C)c(OCC(=O)O)c(C)c3)nc12` [Example 64, {4-[5-(4-chloro-3-fluorophenoxy)-7-propoxy-oxazolo[5,4-d]pyrimidin-2-yl]-2,6-dimethylphenoxy}-acetic acid] was 65%. The value for `CCCOc1nc(Oc2cc(F)ccc2Cl)nc2oc(-c3cc(C)c(OCC(=O)O)c(C)c3)nc12` [Example 65, {4-[5-(2-chloro-5-fluorophenoxy)-7-propoxy-oxazolo[5,4-d]pyrimidin-2-yl]-2,6-dimethylphenoxy}-acetic acid] was 105%. The value for `CCCOc1nc(Oc2ccc3ncsc3c2)nc2oc(-c3cc(C)c(OCC(=O)O)c(C)c3)nc12` [Example 66, {4-[5-(benzothiazol-6-yloxy)-7-propoxy-oxazolo[5,4-d]pyrimidin-2-yl]-2,6-dimethylphenoxy}-acetic acid] was 102%; that for `CCCOc1nc(Oc2cccc(C(F)(F)F)c2)nc2oc(-c3cc(C)c(OCC(=O)O)c(C)c3)nc12` [Example 67, {2,6-dimethyl-4-[7-propoxy-5-(3-trifluoromethylphenoxy)-oxazolo[5,4-d]pyrimidin-2-yl]-phenoxy}-acetic acid] was 82%. Regarding `CCCOc1nc(Oc2ccc(C(F)(F)F)cc2)nc2oc(-c3cc(C)c(OCC(=O)O)c(C)c3)nc12` [Example 68, {2,6-dimethyl-4-[7-propoxy-5-(4-trifluoromethylphenoxy)-oxazolo[5,4-d]pyrimidin-2-yl]-phenoxy}-acetic acid], the activation at 10 µM turned out to be 69%. On to `CCCOc1nc(Oc2ccccc2C(F)(F)F)nc2oc(-c3cc(C)c(OCC(=O)O)c(C)c3)nc12` [Example 69, {2,6-dimethyl-4-[7-propoxy-5-(2-trifluoromethylphenoxy)-oxazolo[5,4-d]pyrimidin-2-yl]-phenoxy}-acetic acid], for which the activation at 10 µM came to 67%.

For the compound `CCCOc1nc(Oc2ccc3sc(C)nc3c2)nc2oc(-c3cc(C)c(OCC(=O)O)c(C)c3)nc12` [Example 70, {2,6-dimethyl-4-[5-(2-methylbenzothiazol-5-yloxy)-7-propoxy-oxazolo[5,4-d]pyrimidin-2-yl]-phenoxy}-acetic acid], the activation at 10 µM is 89%. The value for `CCCOc1nc(Oc2ccccc2OC(F)(F)F)nc2oc(-c3cc(C)c(OCC(=O)O)c(C)c3)nc12` [Example 71, {2,6-dimethyl-4-[7-propoxy-5-(2-trifluoromethoxyphenoxy)-oxazolo[5,4-d]pyrimidin-2-yl]-phenoxy}-acetic acid] was 62%; that for `CCCOc1nc(Oc2cccc(C(F)(F)F)c2F)nc2oc(-c3cc(C)c(OCC(=O)O)c(C)c3)nc12` [Example 72, {4-[5-(2-fluoro-3-trifluoromethylphenoxy)-7-propoxy-oxazolo[5,4-d]pyrimidin-2-yl]-2,6-dimethyl-phenoxy}-acetic acid] was 48%; that for `CCCOc1nc(Oc2cc(C(F)(F)F)ccc2F)nc2oc(-c3cc(C)c(OCC(=O)O)c(C)c3)nc12` [Example 73, {4-[5-(2-fluoro-5-trifluoromethylphenoxy)-7-propoxy-oxazolo[5,4-d]pyrimidin-2-yl]-2,6-dimethylphenoxy}-acetic acid] was 59%. Under `CCCOc1nc(Oc2ccc(F)c(C(F)(F)F)c2)nc2oc(-c3cc(C)c(OCC(=O)O)c(C)c3)nc12` [Example 74, {4-[5-(4-fluoro-3-trifluoromethylphenoxy)-7-propoxy-oxazolo[5,4-d]pyrimidin-2-yl]-2,6-dimethyl-phenoxy}-acetic acid] stands 61%. Consider `CCCOc1nc(Oc2cc(F)cc(C(F)(F)F)c2)nc2oc(-c3cc(C)c(OCC(=O)O)c(C)c3)nc12` [Example 75, {4-[5-(3-fluoro-5-trifluoromethylphenoxy)-7-propoxy-oxazolo[5,4-d]pyrimidin-2-yl]-2,6-dimethyl-phenoxy}-acetic acid], for which the activation at 10 µM came to 48%.

As for `CCCOc1nc(Oc2cccc(SC(F)(F)F)c2)nc2oc(-c3cc(C)c(OCC(=O)O)c(C)c3)nc12` [Example 76, {2,6-dimethyl-4-[7-propoxy-5-(3-trifluoromethylsulfanyl-phenoxy)-oxazolo[5,4-d]pyrimidin-2-yl]-phenoxy}-acetic acid], the activation at 10 µM turned out to be 81%. On to `CCCOc1nc(Oc2cc(C(F)(F)F)ccc2Cl)nc2oc(-c3cc(C)c(OCC(=O)O)c(C)c3)nc12` [Example 77, {4-[5-(2-chloro-5-trifluoromethylphenoxy)-7-propoxy-oxazolo[5,4-d]pyrimidin-2-yl]-2,6-dimethyl-phenoxy}-acetic acid], for which the activation at 10 µM is 77%. The value for `CCCOc1nc(Oc2ccc(Cl)c(C(F)(F)F)c2)nc2oc(-c3cc(C)c(OCC(=O)O)c(C)c3)nc12` [Example 78, {4-[5-(4-chloro-3-trifluoromethylphenoxy)-7-propoxy-oxazolo[5,4-d]pyrimidin-2-yl]-2,6-dimethylphenoxy}-acetic acid] was 72%. Under `CCCOc1nc(Oc2cccc(C(F)(F)F)c2Cl)nc2oc(-c3cc(C)c(OCC(=O)O)c(C)c3)nc12` [Example 79, {4-[5-(2-chloro-3-trifluoromethylphenoxy)-7-propoxy-oxazolo[5,4-d]pyrimidin-2-yl]-2,6-dimethylphenoxy}-acetic acid] stands 82%.
